We go through eleven compounds from patent publication US20050282755A1, “Compositions having antimicrobial activity and uses thereof” (priority 2004, published 2005).

Common to all, as to type: cell-based
One assay concerns Salmonella dublin (Lane). As to the kind of experiment: MIC, NCCLS M7-A6 broth microdilution (Table 9, no superscript). An outline of the steps:
(§1)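 MIC, read as the lowest peptide concentration without visible growth compared with peptide-free wells, after overnight incubation at 37° C. Wells held cation-adjusted Mueller Hinton broth and a final inoculum of 5×10^5 to 1×10^6 CFU/mL from log-phase culture.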
In general terms: Broth dilution looks for growth in wells or tubes with falling amounts of substance.

Assay [1] concerns Staphylococcus epidermidis ATCC 12228. The assay is described as above. Particulars: ATCC 12228. An outline of the steps: as §1
Assay [2] deals with Escherichia coli ATCC 25922. The description is as above. Particulars: ATCC 25922. An outline of the steps:
as §1

The subject of assay [3] is Pseudomonas aeruginosa ATCC 27853. The description is as above. Particulars: ATCC 27853. An outline of the steps:
as §1

The test system of assay [4] is Staphylococcus aureus ATCC 29213. The assay can be described thus: MIC, NCCLS M7-A6 broth microdilution, cation-adjusted Mueller Hinton broth (Table 9, no superscript). Particulars: ATCC 29213. An outline of the steps:
as §1

Each structure is given as a SMILES string. In brackets after ≈: the same amount, converted by molar mass. Starred links: 1 amine or outer side, 2 acyl side, 3 side chain; linkers in the order of their positions; H or OH if unused. Non-standard residues stand in square brackets, D forms with d. Residues, ends and D or L forms follow the SMILES beside them. *: point of attachment. 1Nal = N[C@@H](Cc1cccc2ccccc12)C(=O)O; Ethylenediamine = C(CN[*:2])N[*:1]; Palmitoyl = CCCCCCCCCCCCCCCC(=O)*; Lauroyl = CCCCCCCCCCCC(=O)*; Octanoyl = CCCCCCCC(=O)* A value given as a limit tells only on which side of the number the result lay.

For the compound `CCCCCCCCCCCC(=O)N[C@H](CCCNC(=N)N)C(=O)N[C@H](CO)C(=O)N[C@H](CCCNC(=N)N)C(=O)N[C@H](Cc1c[nH]c2ccccc12)C(=O)N[C@H](C)C(=O)N[C@H](CC(=O)O)C(=O)N[C@@H](C(=O)N[C@H](C)C(=O)N[C@H](CCCNC(=N)N)C(=O)N[C@H](CC(N)=O)C(=O)N[C@H](Cc1ccccc1)C(=O)N[C@H](CCSC)C(=O)N[C@H](CCCNC(=N)N)C(N)=O)C(C)C` [Peptide 229, Lauryl-rsrwadvarnfmr-NH2] (Lauroyl-[dR][dS][dR][dW][dA][dD][dV][dA][dR][dN][dF][dM][dR]-NH2), the “MIC S. dublin” value against Salmonella dublin (Lane) stood at 8 µg/mL (≈ 4.33 µM). For the same compound, the “MIC S. epidermidis” value in assay [1] came to 4 µg/mL (≈ 2.17 µM). Moreover, in assay [2], the “MIC E. coli” value amounted to 8 µg/mL (≈ 4.33 µM). In addition, the “MIC P. aeruginosa” value in assay [3] was determined as 8 µg/mL (≈ 4.33 µM). Moreover, the “MIC S. aureus” value in assay [4] turned out to be 8 µg/mL (≈ 4.33 µM).
Regarding `CCCCCCCCCCCC(=O)N[C@H](CCCNC(=N)N)C(=O)N[C@H](C)C(=O)N[C@H](CCCNC(=N)N)C(=O)N[C@H](Cc1c[nH]c2ccccc12)C(=O)N[C@H](CCCNC(=N)N)C(=O)N[C@H](C)C(=O)N[C@@H](C(=O)N[C@H](C)C(=O)N[C@H](CCCNC(=N)N)C(=O)N[C@H](C)C(=O)N[C@H](Cc1ccccc1)C(=O)N[C@H](C)C(=O)N[C@H](CCCNC(=N)N)C(N)=O)C(C)C` [Peptide 217, Lauryl-rarwravarafar-NH2] (Lauroyl-[dR][dA][dR][dW][dR][dA][dV][dA][dR][dA][dF][dA][dR]-NH2), the “MIC S. dublin” value in the assay on Salmonella dublin (Lane) is 2 µg/mL (≈ 1.13 µM). Moreover, in assay [1], the “MIC S. epidermidis” value was 2 µg/mL (≈ 1.13 µM). For the same compound, the “MIC E. coli” value in assay [2] stood at 16 µg/mL (≈ 9.05 µM). Further, the “MIC P. aeruginosa” value in assay [3] is 8 µg/mL (≈ 4.52 µM). Besides, in assay [4], the “MIC S. aureus” value was 1 µg/mL (≈ 0.566 µM).
Turning to `CCCCCCCCCCCC(=O)N[C@H](C(=O)N[C@@H](CCCNC(=N)N)C(=O)N[C@H](C(=O)N[C@@H](CO)C(=O)N[C@@H](CCCNC(=N)N)C(=O)N[C@H](C(=O)NCC(=O)N[C@@H](CCCNC(=N)N)C(=O)N[C@@H](CO)C(=O)N[C@@H](CCCNC(=N)N)C(=O)N[C@@H](Cc1c[nH]c2ccccc12)C(=O)N[C@@H](CCCNC(=N)N)C(=O)N[C@@H](CC(=O)O)C(=O)N[C@@H](Cc1c[nH]c2ccccc12)C(=O)N[C@@H](CO)C(=O)N[C@@H](CCCNC(=N)N)C(=O)N[C@@H](CC(N)=O)C(=O)N[C@@H](Cc1ccccc1)C(=O)N[C@@H](CCSC)C(=O)N[C@@H](CCCNC(=N)N)C(=O)N[C@@H](CC(C)C)C(=O)N[C@@H](CC(C)C)C(N)=O)[C@@H](C)O)C(C)C)[C@@H](C)O` [Peptide 68] (Lauroyl-TRVSRTGRSRWRDWSRNFMRLL-NH2), the “MIC S. dublin” value in the assay on Salmonella dublin (Lane) amounted to 16 µg/mL (≈ 5.3 µM). In addition, the “MIC S. epidermidis” value in assay [1] turned out to be 8 µg/mL (≈ 2.65 µM). Further, in assay [2], the “MIC E. coli” value came out at 64 µg/mL (≈ 21.2 µM). Further, the “MIC P. aeruginosa” value in assay [3] is >64 µg/mL. Also, in assay [4], the “MIC S. aureus” value is 32 µg/mL (≈ 10.6 µM).
Taken in the same sequence, the figures for `CCCCCCCCCCCCCCCC(=O)NCCCC[C@@H](NC(=O)[C@@H](CCCNC(=N)N)NC(=O)[C@@H](CC(C)C)NC(=O)[C@@H](Cc1ccccc1)NC(=O)[C@@H](CC(N)=O)NC(=O)[C@@H](CCCNC(=N)N)NC(=O)[C@@H](C)NC(=O)[C@H](NC(=O)[C@@H](CC(=O)O)NC(=O)[C@@H](CCCNC(=N)N)NC(=O)[C@@H](Cc1c[nH]c2ccccc12)NC(=O)[C@@H](CCCNC(=N)N)NC(=O)[C@@H](CO)NC(=O)[C@H](N)CCCNC(=N)N)C(C)C)C(N)=O` [Peptide 196, H2N-rsrwrdvarnflrk(Palmitoyl)-NH2] (H-[dR][dS][dR][dW][dR][dD][dV][dA][dR][dN][dF][dL][dR][dK](Palmitoyl)-NH2) were 64 µg/mL (≈ 30.5 µM), 32 µg/mL (≈ 15.3 µM), >64 µg/mL, >64 µg/mL and 64 µg/mL (≈ 30.5 µM).
For `CSCC[C@H](NC(=O)[C@H](Cc1ccccc1)NC(=O)[C@H](CC(N)=O)NC(=O)[C@H](CCCNC(=N)N)NC(=O)[C@H](C)NC(=O)[C@H](Cc1c[nH]c2ccccc12)NC(=O)[C@H](CC(=O)O)NC(=O)[C@H](CCCNC(=N)N)NC(=O)[C@H](Cc1c[nH]c2ccccc12)NC(=O)[C@H](CCCNC(=N)N)NC(=O)[C@H](CO)NC(=O)[C@H](CCCNC(=N)N)NC(C)=O)C(=O)N[C@@H](CCCNC(=N)N)C(N)=O` [Peptide 94, Ac-RSRWRDWARNFMR-NH2] (Ac-RSRWRDWARNFMR-NH2) the same measures were >64 µg/mL, 16 µg/mL (≈ 8.52 µM), >64 µg/mL, >64 µg/mL and >64 µg/mL.
As to `CCCCCCCCCCCC(=O)N[C@@H](CO)C(=O)N[C@@H](CCCNC(=N)N)C(=O)N[C@@H](Cc1c[nH]c2ccccc12)C(=O)N[C@@H](CCCNC(=N)N)C(=O)N[C@@H](CC(=O)O)C(=O)N[C@H](C(=O)N[C@@H](C)C(=O)N[C@@H](CCCNC(=N)N)C(=O)N[C@@H](CC(N)=O)C(=O)N[C@@H](Cc1ccccc1)C(=O)N[C@@H](CC(C)C)C(=O)N[C@@H](CCCNC(=N)N)C(N)=O)C(C)C` [Peptide 162, Lauryl-SRWRDVARNFLR-NH2] (Lauroyl-SRWRDVARNFLR-NH2), in the assay with Salmonella dublin (Lane), the “MIC S. dublin” value was 16 µg/mL (≈ 9.11 µM). Besides, the “MIC S. epidermidis” value in assay [1] worked out at 8 µg/mL (≈ 4.55 µM). Besides, the “MIC E. coli” value in assay [2] was 32 µg/mL (≈ 18.2 µM). For the same compound, in assay [3], the “MIC P. aeruginosa” value is >64 µg/mL. Moreover, in assay [4], the “MIC S. aureus” value was determined as 4 µg/mL (≈ 2.28 µM).
Taken in the same sequence, the figures for `CCCCCCCCCCCC(=O)N[C@@H](CCCNC(=N)N)C(=O)N[C@@H](CO)C(=O)N[C@@H](CCCNC(=N)N)C(=O)N[C@@H](Cc1cccc2ccccc12)C(=O)N[C@@H](CCCNC(=N)N)C(=O)N[C@@H](CC(=O)O)C(=O)N[C@H](C(=O)N[C@@H](C)C(=O)N[C@@H](CCCNC(=N)N)C(=O)N[C@@H](CC(N)=O)C(=O)N[C@@H](Cc1cccc2ccccc12)C(=O)N[C@@H](CCSC)C(=O)N[C@@H](CCCNC(=N)N)C(N)=O)C(C)C` [Peptide 154, Lauryl-RSRZRDVARNZMR-NH2 Z = 1-naphthylalanine] (Lauroyl-RSR[1Nal]RDVARN[1Nal]MR-NH2) were 8 µg/mL (≈ 4.02 µM), 8 µg/mL (≈ 4.02 µM), 64 µg/mL (≈ 32.1 µM), >64 µg/mL and 4 µg/mL (≈ 2.01 µM).
Taken in the same sequence, the figures for `CCCCCCCCCCCCCCCC(=O)NCCNC(=O)[C@H](CCCNC(=N)N)NC(=O)[C@H](CC(C)C)NC(=O)[C@H](Cc1ccccc1)NC(=O)[C@H](CC(N)=O)NC(=O)[C@H](CCCNC(=N)N)NC(=O)[C@H](C)NC(=O)[C@@H](NC(=O)[C@H](CC(=O)O)NC(=O)[C@H](CCCNC(=N)N)NC(=O)[C@H](Cc1c[nH]c2ccccc12)NC(=O)[C@H](CCCNC(=N)N)NC(=O)[C@H](CO)NC(=O)[C@@H](N)CCCNC(=N)N)C(C)C` [Peptide 172, H2N-RSRWRDVARNFLR-Ethylamidopalmitoyl] (H-RSRWRDVARNFLR-{Ethylenediamine-Palmitoyl}; C-terminus assumed) were >64 µg/mL, 64 µg/mL (≈ 31.8 µM), >64 µg/mL, >64 µg/mL and >64 µg/mL.
For `CCCCCCCCCCCC(=O)N[C@H](CCCNC(=N)N)C(=O)N[C@H](CO)C(=O)N[C@H](C)C(=O)N[C@H](Cc1c[nH]c2ccccc12)C(=O)N[C@H](CCCNC(=N)N)C(=O)N[C@H](CC(=O)O)C(=O)N[C@@H](C(=O)N[C@H](C)C(=O)N[C@H](CCCNC(=N)N)C(=O)N[C@H](CC(N)=O)C(=O)N[C@H](Cc1ccccc1)C(=O)N[C@H](CCSC)C(=O)N[C@H](CCCNC(=N)N)C(N)=O)C(C)C` [Peptide 228, Lauryl-rsawrdvarnfmr-NH2] (Lauroyl-[dR][dS][dA][dW][dR][dD][dV][dA][dR][dN][dF][dM][dR]-NH2) the same measures were 64 µg/mL (≈ 34.7 µM), 16 µg/mL (≈ 8.67 µM), >64 µg/mL, >64 µg/mL and 64 µg/mL (≈ 34.7 µM).
Turning to `CCCCCCCC(=O)NCCCC[C@H](NC(=O)[C@H](CCCNC(=N)N)NC(=O)[C@H](CCSC)NC(=O)[C@H](Cc1ccccc1)NC(=O)[C@H](CC(N)=O)NC(=O)[C@H](CCCNC(=N)N)NC(=O)[C@H](C)NC(=O)[C@@H](NC(=O)[C@H](CC(=O)O)NC(=O)[C@H](CCCNC(=N)N)NC(=O)[C@H](Cc1c[nH]c2ccccc12)NC(=O)[C@H](CCCNC(=N)N)NC(=O)[C@H](CO)NC(=O)[C@@H](N)CCCNC(=N)N)C(C)C)C(N)=O` [Peptide 184, H2N-RSRWRDVARNFMRK(Octanyl)-NH2] (H-RSRWRDVARNFMRK(Octanoyl)-NH2), the “MIC S. dublin” value in the assay with Salmonella dublin (Lane) worked out at 16 µg/mL (≈ 7.99 µM). Further, in assay [1], the “MIC S. epidermidis” value is 2 µg/mL (≈ 0.998 µM). Also, the “MIC E. coli” value in assay [2] was 16 µg/mL (≈ 7.99 µM). Further, the “MIC P. aeruginosa” value in assay [3] is >64 µg/mL. The “MIC S. aureus” value in assay [4] is 64 µg/mL (≈ 31.9 µM).
For `CCCCCCCC(=O)N[C@H](CCCNC(=N)N)C(=O)N[C@H](CO)C(=O)N[C@H](CCCNC(=N)N)C(=O)N[C@H](Cc1c[nH]c2ccccc12)C(=O)N[C@H](CCCNC(=N)N)C(=O)N[C@H](CC(=O)O)C(=O)N[C@@H](C(=O)N[C@H](C)C(=O)N[C@H](CCCNC(=N)N)C(=O)N[C@H](CC(N)=O)C(=O)N[C@H](Cc1ccccc1)C(=O)N[C@H](CC(C)C)C(=O)N[C@H](CCCNC(=N)N)C(N)=O)C(C)C` [Peptide 189, Octyl-rsrwrdvarnflr-NH2] (Octanoyl-[dR][dS][dR][dW][dR][dD][dV][dA][dR][dN][dF][dL][dR]-NH2), the “MIC S. dublin” value in the assay on Salmonella dublin (Lane) stood at 8 µg/mL (≈ 4.31 µM). Moreover, the “MIC S. epidermidis” value in assay [1] came to 4 µg/mL (≈ 2.15 µM). Moreover, the “MIC E. coli” value in assay [2] was determined as 16 µg/mL (≈ 8.62 µM). Besides, the “MIC P. aeruginosa” value in assay [3] came out at 32 µg/mL (≈ 17.2 µM). In assay [4], the “MIC S. aureus” value turned out to be 32 µg/mL (≈ 17.2 µM).
